Reference: article PMC5320485, “4-isopropylcyclohexanol has potential analgesic effects through the inhibition of anoctamin 1, TRPV1 and TRPA1 channel activities” (Scientific Reports, 2017)

What was measured:
Format in all cases: cell-based
[1] = molecular target: human TRPA1 (hTRPA1) (Homo sapiens, UniProt O75762); experiment: whole-cell patch clamp in HEK293T cells; inhibits AITC currents at […] and weakly activates alone
[2] = molecular target: T1, mouse anoctamin 1 (mANO1) (Mus musculus, UniProt Q8BHY3); experiment: whole-cell patch clamp in HEK293T cells, dose-response at −[…] mV
T1 construct: gene Ano1
T1 sequence (Q8BHY3 1-960): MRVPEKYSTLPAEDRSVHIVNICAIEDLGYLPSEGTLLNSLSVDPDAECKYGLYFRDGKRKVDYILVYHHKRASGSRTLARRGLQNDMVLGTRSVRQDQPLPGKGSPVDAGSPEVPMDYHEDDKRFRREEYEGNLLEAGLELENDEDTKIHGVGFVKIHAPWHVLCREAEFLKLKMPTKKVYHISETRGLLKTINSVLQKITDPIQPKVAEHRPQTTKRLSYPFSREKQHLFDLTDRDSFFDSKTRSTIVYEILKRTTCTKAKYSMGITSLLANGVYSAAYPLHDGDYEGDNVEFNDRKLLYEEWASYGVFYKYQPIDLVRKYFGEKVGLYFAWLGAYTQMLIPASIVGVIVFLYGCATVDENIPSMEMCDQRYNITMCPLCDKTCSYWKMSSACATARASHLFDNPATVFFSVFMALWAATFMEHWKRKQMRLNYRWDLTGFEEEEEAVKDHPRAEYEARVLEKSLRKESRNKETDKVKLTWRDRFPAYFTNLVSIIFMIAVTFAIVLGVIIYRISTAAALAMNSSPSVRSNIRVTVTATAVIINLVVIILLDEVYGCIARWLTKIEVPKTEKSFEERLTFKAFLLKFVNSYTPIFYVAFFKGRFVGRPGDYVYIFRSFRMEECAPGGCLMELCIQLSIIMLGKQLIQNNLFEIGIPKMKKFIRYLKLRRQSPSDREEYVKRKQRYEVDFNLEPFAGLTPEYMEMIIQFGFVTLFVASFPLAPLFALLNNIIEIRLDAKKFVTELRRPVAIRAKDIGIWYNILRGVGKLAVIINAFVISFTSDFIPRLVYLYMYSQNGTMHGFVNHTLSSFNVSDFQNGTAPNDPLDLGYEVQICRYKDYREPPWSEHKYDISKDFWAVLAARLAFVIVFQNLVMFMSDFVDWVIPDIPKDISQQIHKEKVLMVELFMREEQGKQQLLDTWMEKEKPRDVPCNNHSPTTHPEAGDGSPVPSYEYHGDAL

[3] = molecular target: T1, mouse anoctamin 1 (mANO1); experiment: whole-cell patch clamp in HEK293T cells at […]

human TRPA1 (hTRPA1), sequence (O75762 whole entry): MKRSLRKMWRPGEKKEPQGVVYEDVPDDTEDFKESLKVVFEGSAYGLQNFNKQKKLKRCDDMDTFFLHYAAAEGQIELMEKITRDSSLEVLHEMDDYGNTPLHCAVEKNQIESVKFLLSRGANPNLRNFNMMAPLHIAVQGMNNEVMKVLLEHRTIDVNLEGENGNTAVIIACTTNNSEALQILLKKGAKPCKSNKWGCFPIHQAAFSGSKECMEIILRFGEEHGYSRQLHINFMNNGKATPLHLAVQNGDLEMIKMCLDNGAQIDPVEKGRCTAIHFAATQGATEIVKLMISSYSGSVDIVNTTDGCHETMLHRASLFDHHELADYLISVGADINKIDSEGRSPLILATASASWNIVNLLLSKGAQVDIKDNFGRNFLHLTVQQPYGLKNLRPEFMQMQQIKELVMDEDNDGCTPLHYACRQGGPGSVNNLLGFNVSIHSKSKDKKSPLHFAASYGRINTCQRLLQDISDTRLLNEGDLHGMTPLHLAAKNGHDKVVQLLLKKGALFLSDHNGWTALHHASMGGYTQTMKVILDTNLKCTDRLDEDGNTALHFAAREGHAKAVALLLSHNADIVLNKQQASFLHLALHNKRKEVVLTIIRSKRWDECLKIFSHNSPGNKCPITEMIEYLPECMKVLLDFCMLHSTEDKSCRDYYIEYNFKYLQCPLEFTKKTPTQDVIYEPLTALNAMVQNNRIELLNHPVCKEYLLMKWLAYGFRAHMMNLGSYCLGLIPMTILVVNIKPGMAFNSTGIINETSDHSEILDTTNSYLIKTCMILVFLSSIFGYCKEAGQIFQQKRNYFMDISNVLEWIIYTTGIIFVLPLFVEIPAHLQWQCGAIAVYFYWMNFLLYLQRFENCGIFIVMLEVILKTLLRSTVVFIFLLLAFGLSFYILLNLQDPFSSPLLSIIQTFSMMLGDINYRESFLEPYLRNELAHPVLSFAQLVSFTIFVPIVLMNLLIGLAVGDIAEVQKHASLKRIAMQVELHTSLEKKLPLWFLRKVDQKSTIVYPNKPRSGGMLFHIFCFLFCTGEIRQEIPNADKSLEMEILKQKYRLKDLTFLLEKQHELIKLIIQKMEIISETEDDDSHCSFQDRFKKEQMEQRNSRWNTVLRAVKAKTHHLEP

| SMILES | whole-cell patch clamp in HEK293T cells; inhibits AITC currents at 3 mM and weak [1] | IC50 [2] [µM] | whole-cell patch clamp in HEK293T cells at 3 mM [3] |
| --- | --- | --- | --- |
| CC(C)C1CCC(O)CC1 (stereo not shown) [4-iPr-CyH-OH, 4-isopropylcyclohexanol] | 4-iPr-CyH-OH did not activate hTRPV1 (Fig. 5d), yet did slightly but significantly activate hTRPA1 | 1090 |  |
| CC(C)C1CCCCC1 [iPr-CyH, isopropylcyclohexane] |  |  | isopropylcyclohexane (iPr-CyH) strongly inhibited mANO1 currents to a similar degree as that seen for d-menthol |
| CC(C)[C@@H]1CC[C@@H](C)C[C@H]1O [l-menthol] |  | 441 |  |
